# Laboratory results taken from ChEMBL document CHEMBL1201862, “PubChem BioAssay data set” (2004).
# Calls of active or inactive are those of the source.
# Legend:
# [1] = cytotoxicity toward NIH3T3 fibroblasts, dose response, counter-screen, cell-based, ATP luminescence, mouse fibroblasts (AID 2010); assay type: functional;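 note: cells exposed to compound for about 90 hours before reading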
# [2] = cells; assay type: functional
# [3] = inhibitors of intracellular T. cruzi replication, confirmation, NIH3T3 host cells, beta-gal luminescence (AID 2044); assay type: functional, cell-based;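 note: intracellular parasites grown in NIH/3T3 mouse fibroblasts as host cells; luminescent beta-galactosidase reporter signal from transgenic T. cruzi replicating inside host cells; inhibitors lower the luminescence signal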
# [4] = inhibitors of SNCA 5'UTR-driven reporter translation, confirmation, H4 neuroglioma cells, luminescence (AID 1988); assay type: functional, cell-based
# [5] = target: T1, Zinc finger protein mex-5 (Caenorhabditis elegans, UniProt Q9XUB2); experiment: MEX-5/TCR-2 RNA interaction inhibitors, dose response, biochemical, C. elegans, fluorescence polarization (AID 1960)
# T1 sequence (Q9XUB2 whole entry): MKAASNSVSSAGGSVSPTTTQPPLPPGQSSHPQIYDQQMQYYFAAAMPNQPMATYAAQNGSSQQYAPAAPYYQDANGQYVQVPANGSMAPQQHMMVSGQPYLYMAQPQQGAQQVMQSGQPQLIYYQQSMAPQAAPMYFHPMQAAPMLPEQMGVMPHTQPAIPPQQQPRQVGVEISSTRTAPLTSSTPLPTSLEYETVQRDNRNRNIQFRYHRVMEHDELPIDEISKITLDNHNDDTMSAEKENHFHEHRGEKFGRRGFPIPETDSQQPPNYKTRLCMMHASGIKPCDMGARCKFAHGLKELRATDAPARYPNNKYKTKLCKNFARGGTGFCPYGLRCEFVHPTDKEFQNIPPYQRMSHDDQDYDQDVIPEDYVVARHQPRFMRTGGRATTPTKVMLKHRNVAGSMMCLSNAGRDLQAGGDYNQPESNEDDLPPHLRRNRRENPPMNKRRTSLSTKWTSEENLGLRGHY
# [6] = inhibitors of firefly luciferase expression or activity, dose response, H4 neuroglioma cells, luminescence (AID 1990); assay type: functional, cell-based
# [7] = target: T2, RNA-binding protein pos-1 (Caenorhabditis elegans, UniProt G5EF15); experiment: inhibitors of POS-1/mex-3 RNA binding, dose response, biochemical, fluorescence polarization (AID 1964);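 note: purified POS-1 fused to maltose binding protein made in E. coli; potency of compounds blocking POS-1 binding to fluorescent RNA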
# T2 sequence (G5EF15 whole entry): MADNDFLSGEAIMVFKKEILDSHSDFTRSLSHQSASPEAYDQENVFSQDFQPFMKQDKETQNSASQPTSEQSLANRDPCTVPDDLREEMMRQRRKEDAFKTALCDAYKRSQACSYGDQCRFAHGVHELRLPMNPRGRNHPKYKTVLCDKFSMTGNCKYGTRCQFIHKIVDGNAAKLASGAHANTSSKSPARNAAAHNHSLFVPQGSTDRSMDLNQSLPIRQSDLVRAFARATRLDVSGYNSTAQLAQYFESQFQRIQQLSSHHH
# [8] = Luminescence Cell-Based Dose Response HTS to Identify Inhibitors of 5'UTR Stem-Loop Driven Prion Protein mRNA Translation in H4 Neuroglioblastoma Cells. [Related pubchem assays: 1827 (Project Summary), 1813 (Primary HTS)]; assay type: functional
# [9] = control 3'UTR Renilla luciferase suppression, dose response, counter-screen for Shn3 inhibitor project, cell-based, Clone20-Shn3RL, cherry-picked (AID 624133); assay type: functional
# [10] = Shn3 3'UTR reporter inhibitors, dose response, cell-based, Clone20 osteoblasts, firefly luciferase, cherry-picked (AID 624132); assay type: functional;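 note: firefly luciferase luminescence from reporter carrying the Shn3 3'UTR in osteoblasts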
# [11] = target: Luciferin 4-monooxygenase (Photinus pyralis, UniProt P08659); experiment: firefly luciferase enzyme inhibitors, dose response, biochemical, luminescence (AID 1891)
# Luciferin 4-monooxygenase, sequence (P08659 whole entry): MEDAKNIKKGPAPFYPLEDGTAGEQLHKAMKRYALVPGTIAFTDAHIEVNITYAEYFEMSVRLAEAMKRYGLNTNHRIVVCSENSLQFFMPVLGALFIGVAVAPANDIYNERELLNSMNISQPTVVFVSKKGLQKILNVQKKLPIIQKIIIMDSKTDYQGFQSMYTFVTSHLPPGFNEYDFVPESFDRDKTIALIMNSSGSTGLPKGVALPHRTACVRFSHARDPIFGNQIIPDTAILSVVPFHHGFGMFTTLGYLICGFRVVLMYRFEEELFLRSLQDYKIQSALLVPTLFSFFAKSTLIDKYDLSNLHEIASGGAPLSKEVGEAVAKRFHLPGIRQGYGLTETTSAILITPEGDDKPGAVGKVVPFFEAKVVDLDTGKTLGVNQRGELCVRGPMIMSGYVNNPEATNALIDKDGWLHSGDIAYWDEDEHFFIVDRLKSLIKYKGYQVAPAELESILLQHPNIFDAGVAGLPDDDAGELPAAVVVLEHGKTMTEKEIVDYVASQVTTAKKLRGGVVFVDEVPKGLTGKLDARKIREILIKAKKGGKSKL
# [12] = target: FAD-linked sulfhydryl oxidase ALR (Homo sapiens, UniProt P55789); experiment: inhibitors of human ALR sulfhydryl oxidase, dose response, biochemical, H2O2 detection, luminescence, cherry-pick (AID 493248)
# FAD-linked sulfhydryl oxidase ALR, sequence (P55789 whole entry): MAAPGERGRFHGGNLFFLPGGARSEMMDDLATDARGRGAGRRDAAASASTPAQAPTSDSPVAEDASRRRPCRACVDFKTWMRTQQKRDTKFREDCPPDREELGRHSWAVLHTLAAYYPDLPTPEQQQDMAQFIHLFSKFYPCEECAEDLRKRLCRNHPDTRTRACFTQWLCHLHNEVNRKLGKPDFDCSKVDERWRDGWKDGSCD
# [13] = Luminescence Cell-Based Dose Confirmation HTS to Identify Inhibitors of Platelet Dense Granule Release. [Related pubchem assays: 1663 (Primary HTS), 1678 (Summary of Project)]; assay type: functional
# [14] = target: T3, Ubiquitin-conjugating enzyme E2 N (Homo sapiens, UniProt P61088); assay type: functional;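 note: Dose-response confirmation in a TR-FRET assay detecting UBC13-driven polyubiquitin chain formation, inhibition measured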
# T3 sequence (P61088 whole entry): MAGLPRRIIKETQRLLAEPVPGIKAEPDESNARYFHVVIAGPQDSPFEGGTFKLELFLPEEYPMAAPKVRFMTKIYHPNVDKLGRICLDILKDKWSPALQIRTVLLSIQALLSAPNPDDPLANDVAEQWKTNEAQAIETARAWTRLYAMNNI
# [15] = target: T4, Protein RecA (Mycobacterium tuberculosis, UniProt P9WHJ3); experiment: Fluorescence Cell-Free Homogeneous Dose Retest to Identify Inhibitors of RecA-Intein Splicing Activity. [Related pubchem assays (depositor defined):AID2097, AID2223, AID489010, AID492950]; assay type: functional
# T4 sequence (P9WHJ3 whole entry): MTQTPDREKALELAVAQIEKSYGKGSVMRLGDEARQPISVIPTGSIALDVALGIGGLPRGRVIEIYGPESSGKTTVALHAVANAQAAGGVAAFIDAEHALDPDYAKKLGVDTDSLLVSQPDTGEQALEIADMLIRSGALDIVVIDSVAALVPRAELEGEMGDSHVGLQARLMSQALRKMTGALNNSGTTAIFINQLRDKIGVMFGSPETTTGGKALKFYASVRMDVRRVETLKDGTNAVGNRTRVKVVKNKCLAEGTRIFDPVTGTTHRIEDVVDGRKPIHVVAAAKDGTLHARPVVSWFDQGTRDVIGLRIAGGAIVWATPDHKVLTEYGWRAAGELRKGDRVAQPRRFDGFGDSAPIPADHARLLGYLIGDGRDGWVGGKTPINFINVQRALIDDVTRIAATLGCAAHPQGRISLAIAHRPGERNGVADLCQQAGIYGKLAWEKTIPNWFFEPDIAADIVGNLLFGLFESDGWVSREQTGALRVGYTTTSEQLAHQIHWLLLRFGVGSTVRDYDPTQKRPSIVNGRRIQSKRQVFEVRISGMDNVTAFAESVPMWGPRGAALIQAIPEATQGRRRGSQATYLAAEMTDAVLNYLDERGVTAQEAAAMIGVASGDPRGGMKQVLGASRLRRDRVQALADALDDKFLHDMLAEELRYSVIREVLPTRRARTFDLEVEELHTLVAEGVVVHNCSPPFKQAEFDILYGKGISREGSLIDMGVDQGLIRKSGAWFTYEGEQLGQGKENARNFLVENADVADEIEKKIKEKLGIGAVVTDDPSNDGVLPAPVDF
# [16] = target: T5, Replicative DNA helicase DnaB (Mycobacterium tuberculosis, UniProt P9WMR3); experiment: DnaB intein splicing inhibitors, dose response, biochemical, cell-free fluorescence (AID 449749); assay type: functional
# T5 sequence (P9WMR3 whole entry): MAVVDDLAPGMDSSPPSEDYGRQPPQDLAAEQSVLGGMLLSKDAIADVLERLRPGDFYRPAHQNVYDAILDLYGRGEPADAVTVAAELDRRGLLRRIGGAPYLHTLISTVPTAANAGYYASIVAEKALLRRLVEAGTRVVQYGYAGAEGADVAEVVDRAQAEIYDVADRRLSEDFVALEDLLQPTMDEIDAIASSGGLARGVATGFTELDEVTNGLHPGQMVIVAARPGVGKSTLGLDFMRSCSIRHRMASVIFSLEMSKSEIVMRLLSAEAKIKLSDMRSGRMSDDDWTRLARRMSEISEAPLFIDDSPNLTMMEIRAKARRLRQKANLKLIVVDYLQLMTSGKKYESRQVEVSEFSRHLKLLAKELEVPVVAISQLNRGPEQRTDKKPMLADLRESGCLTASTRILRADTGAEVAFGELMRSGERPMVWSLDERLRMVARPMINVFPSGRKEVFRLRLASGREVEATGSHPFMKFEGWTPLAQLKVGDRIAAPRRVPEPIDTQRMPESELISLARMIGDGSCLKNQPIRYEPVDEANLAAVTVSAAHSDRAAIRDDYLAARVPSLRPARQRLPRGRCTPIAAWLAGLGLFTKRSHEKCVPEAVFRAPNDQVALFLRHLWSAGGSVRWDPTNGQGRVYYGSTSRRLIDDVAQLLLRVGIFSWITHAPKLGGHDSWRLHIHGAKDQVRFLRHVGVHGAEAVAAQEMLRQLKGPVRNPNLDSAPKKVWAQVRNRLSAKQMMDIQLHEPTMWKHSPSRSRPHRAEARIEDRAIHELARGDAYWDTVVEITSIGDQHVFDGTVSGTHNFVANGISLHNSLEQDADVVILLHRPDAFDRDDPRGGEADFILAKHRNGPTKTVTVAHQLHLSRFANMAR
# [17] = microbe, parasite or virus in culture; assay type: functional; details: Mycobacterium tuberculosis
# [18] = target: T6, Heat shock factor protein 1 (Mus musculus, UniProt P38532); experiment: HSF1 potentiators in luciferase reporter cells, confirmation, cell-based, NIH3T3, luminescence, dose retest (AID 435004); assay type: functional;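 note: stress induced by proteasome inhibitor MG132 added 30 min after compound; luciferase reporter driven by HSF1 response element in NIH3T3 cells; actives raise luminescence as potentiators of the MG132 stress response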
# T6 sequence (P38532 whole entry): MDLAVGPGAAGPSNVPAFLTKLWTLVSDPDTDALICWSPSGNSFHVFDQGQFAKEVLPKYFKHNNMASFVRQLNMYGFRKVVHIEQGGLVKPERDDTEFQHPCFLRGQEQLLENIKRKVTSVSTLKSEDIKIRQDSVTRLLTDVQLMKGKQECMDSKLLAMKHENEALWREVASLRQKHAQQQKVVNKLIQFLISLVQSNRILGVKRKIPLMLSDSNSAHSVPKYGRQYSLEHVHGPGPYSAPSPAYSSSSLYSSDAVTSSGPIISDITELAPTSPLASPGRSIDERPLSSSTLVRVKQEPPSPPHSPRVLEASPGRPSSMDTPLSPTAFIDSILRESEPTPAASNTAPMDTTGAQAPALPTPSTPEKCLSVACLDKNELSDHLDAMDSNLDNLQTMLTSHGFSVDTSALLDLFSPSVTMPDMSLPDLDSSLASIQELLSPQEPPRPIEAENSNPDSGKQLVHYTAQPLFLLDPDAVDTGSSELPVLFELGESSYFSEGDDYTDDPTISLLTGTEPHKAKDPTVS
# [19] = HEp-2 cell cytotoxicity, dose response, cytotoxicity control for RSV inhibitor project, HTS (AID 2410); assay type: functional; details: human respiratory syncytial virus
# [20] = MC4R antagonists, dose response, counter-screen for LGR2 antagonist project, cell-based, plate reader, cherry pick (AID 743444); assay type: functional;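 note: transfected HEK 293 cells stimulated with alpha-MSH peptide; potency of inhibitors of the alpha-MSH evoked signal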
# [21] = LGR2 antagonists, dose response, cell-based, HEK293, CRE-luciferase reporter, cherry pick, set 2 (AID 743343); assay type: functional;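 note: transfected cells were stimulated with diluted bursicon conditioned medium after compound addition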
compound,measurement,setting,value
O=C(Nc1ccc(Br)cc1)c1cc([N+](=O)[O-])cc([N+](=O)[O-])c1,EC50,[1],> 60 µM (not active)
same,IC50,[2],11.4 µM (active)
same,EC50,[3],190 nM (active)
N=c1c(S(=O)(=O)c2ccc(Cl)cc2)cc2c(=O)n3ccccc3nc2n1C1CCCCC1,EC50,[4],> 120 µM (not active)
same,EC50,[5],125 µM (active)
same,EC50,[6],83.2 µM (active)
same,EC50,[7],82.7 µM (inconclusive)
same,EC50,[8],14.1 µM (active)
CCOC(=O)c1cccc(NC2c3ccccc3C(=O)N2Cc2ccco2)c1 (centres undefined),AC50,[9],1.94 µM (active)
same,AC50,[10],4.26 µM (active)
Nc1ccc(-c2nc3cc(N)ccc3o2)cc1,EC50,[11],> 112 µM (not active)
same,AC50,[12],0.289 µM (active)
same,EC50,[13],29.6 µM (active)
Cc1cccc(C)c1NC(=O)COC(=O)CCc1c[nH]c2ccccc12,IC50,[2],9.65 µM (active)
CCCCOc1ccc(C(=O)NNC(=O)c2cnccn2)cc1OC,IC50,[14],> 20 µM (inactive)
COC(=O)[C@@]12CCCCN1[C@H](c1ccc(SC3CCCCC3)c(OC)c1)[C@@H]1C(=O)N(C)C(=O)[C@@H]12,AC50,[9],24.2 µM (active)
same,AC50,[10],21.4 µM (active)
CC(C)(C)OC(=O)N/N=C\c1ccc(OC(=O)c2ccco2)cc1,EC50,[15],16.2 µM (active)
same,AC50,[16],34.5 µM (active)
same,IC50,[2],39.5 µM (active)
O=C(O)c1[nH]c2ccccc2c1NS(=O)(=O)c1ccc(F)cc1,AC50,[12],3.4 µM (active)
Cc1ccc(-n2c(S)nnc2-c2cnccn2)cc1,AC50,[12],6.42 µM (active)
Cc1cccc(N2CC(C(=O)Nc3ccccc3N3CCCC3)CC2=O)c1C (centres undefined),AC50,[12],1.93 µM (active)
CCOc1ccc(OCCSc2ccc(S(=O)(=O)N3CCN(C)CC3)cn2)cc1,CC50,[17],> 40 µM (active)
same,IC50,[2],19.3 µM (active)
C=CCn1c(S)nnc1-c1cc(-c2ccccc2)sc1N,EC50,[18],> 260 µM (inactive)
same,AC50,[12],< 0.005 µM (active)
CCc1nnc(NC(=O)c2cc3ccccc3oc2=O)s1,IC50,[2],0.81 µM (active)
O/N=C\c1ccc(-c2ccccc2)o1,AC50,[12],6.45 µM (active)
CN(C)c1ncnc2c1C(c1ccccc1)C(C)(C)O2 (centres undefined),AC50,[10],> 70 µM (inactive)
Cc1ccc(NC2CCCN(C(=O)CCCN3CCCCC3=O)C2)cc1C (centres undefined),AC50,[12],8.32 µM (active)
COC(=O)c1ccc(N2CCN(S(=O)(=O)c3ccc(C)cc3)CC2)c([N+](=O)[O-])c1,AC50,[9],2.95 µM (active)
same,AC50,[10],3.88 µM (active)
C[C@@H](CN1C2=NC[C@H](Cc3ccccc3)N2C[C@H]1Cc1ccc(O)cc1)NC(=O)CCC1CCCCC1,IC50,[14],> 20 µM (inactive)
Cc1nn2c(nc(N3CCOCC3)c3ccccc32)c1C=C(C#N)C#N,IC50,[14],> 20 µM (inactive)
Cc1oc2cc3oc(=O)c(CC(=O)N[C@@H](C)C(=O)NC(Cc4ccc(Cl)cc4)C(=O)O)c(C)c3cc2c1C (some centres undefined),AC50,[12],94.3 µM (active)
CCOc1cc(C(c2c(C)[nH][nH]c2=O)c2c(C)[nH][nH]c2=O)cc([N+](=O)[O-])c1O,EC50,[5],2.07 µM (active)
same,EC50,[7],16.3 µM (active)
same,EC50,[15],0.219 µM (active)
same,AC50,[16],0.299 µM (active)
COc1ccccc1NC(=O)COC(=O)c1cc(C)nc2ccccc12,IC50,[14],> 20 µM (inactive)
O=C(CCS(=O)(=O)c1ccccc1)Nc1nc2c(s1)CCCC2,AC50,[9],25.2 µM (active)
same,CC50,[19],18.5 µM (active)
Cc1ccc2nc(-c3ccc(NC(=O)COC(=O)c4ccco4)cc3)sc2c1,AC50,[20],3.55 µM (active)
same,AC50,[21],2.95 µM (active)
same,CC50,[19],14.1 µM (active)
O=C(c1ccccc1)C1CN(Cc2ccccc2)CCC1(O)c1ccccc1 (centres undefined),IC50,[2],18.7 µM (active)
CC(=O)Nc1ccc(S(=O)(=O)N[C@@H](C)C(=O)N2CCN(c3ccccn3)CC2)cc1,AC50,[12],1.37 µM (active)
CC(C)C(=O)NCCSc1c[nH]c2ccccc12,AC50,[12],3.12 µM (active)
